Data published in the METLIN SMRT retention time set (Domingo-Almenara et al. 2019).

Assay: gradient 5% acetonitrile 3 min, to 50% in 2 min, to 85% in 15 min, held 3 min, 100 µL/min
Conditions: column: Zorbax Extend-C18 2.1 x 50 mm; eluents: water / acetonitrile, 0.1% formic acid
Method in brief: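 The mobile phases were water and acetonitrile, each with 0.1% formic acid, pumped at 100 μL/min through a Zorbax Extend-C18 column (2.1 × 50 mm, 1.8 μm). Pure standards were injected as mixtures of ~100 molecules and detected by a quadrupole time-of-flight mass spectrometer in positive and negative ionization mode. Retention time came from computationally picked adduct peaks, each inspected by hand.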

Row | RP-LC retention time | Structure (SMILES)
1 | 891 s | COc1ccc(NS(=O)(=O)c2ccc3c(c2)C(=O)N(C)c2ncccc2O3)cc1F
2 | 783 s | CCC(C)(C)C(=O)N1CCCC(c2nc(CCNC(=O)C(C)C)cs2)C1 (stereo not drawn)
3 | 900 s | CCN(CC)C(=O)c1cnc2snc(C)c2c1N1CCC(C(=O)Nc2ccc(OC)c(Cl)c2)CC1
4 | 810 s | Cc1noc(C)c1C1CCCN1C(=O)Cc1cccc(Cl)c1 (stereo not drawn)
5 | 874 s | Cc1ccc(-c2noc(CSc3nc4cc5c(cc4c(=O)n3C3CC3)OCO5)n2)cc1
6 | 1060 s | Cc1ccc(CCNC(=O)C2CCCN(S(=O)(=O)c3cc(-c4noc(C)n4)cs3)C2)cc1 (stereo not drawn)
7 | 723 s | COc1ccc(-c2nnc3n2N=C(c2ccc([N+](=O)[O-])cc2)CS3)cc1OC
8 | 778 s | Cc1ncc2c(n1)CCN(S(=O)(=O)c1ccc(Br)s1)C2
9 | 1070 s | Cc1ccc(-n2c(N3CCCC(C(=O)Nc4ccc(C)c(F)c4)C3)nc3ccsc3c2=O)cc1 (stereo not drawn)
10 | 603 s | CCOC(=O)C1CCN(C(=O)C2CCN(c3cncnc3N(C)C)CC2)CC1
11 | 761 s | COc1ccc(-c2nc3ccc(C)cn3c2Nc2ccccc2C)cc1
12 | 769 s | CCC(C)NC(=O)c1cc2c(s1)CCN(C(=O)c1ccccc1)C2 (stereo not drawn)
13 | 623 s | COCCN1CC2(CCN(S(=O)(=O)c3ccc(F)cc3F)CC2)C1c1ccncc1 (stereo not drawn)
14 | 657 s | CCCNC(=O)C1CCN(c2ccc(SCC(=O)Nc3c(C)cc(C)cc3C)nn2)CC1
15 | 915 s | COC(=O)c1ccccc1S(=O)(=O)N1CCc2c(c(-c3nnc(-c4ccc(F)cc4)o3)nn2C)C1
16 | 1070 s | Cc1ccc(Nc2nc(-c3ccc(F)cc3F)cs2)nc1
17 | 756 s | O=S(=O)(Cc1ccc(Cl)cc1)c1nc2ccccc2nc1N1CCOCC1
18 | 992 s | O=C(NCc1ccc2c(c1)OCO2)C1CCCN(c2ncc(-c3ccccc3)cn2)C1 (stereo not drawn)
19 | 1030 s | Cc1ccc(Cn2c(N3CCCC(C(=O)NCCC(C)C)C3)nc3ccsc3c2=O)cc1 (stereo not drawn)
20 | 579 s | Cn1nc(C(=O)N2CCCCC2)c2c1CCN(C(=O)CCC(=O)NCCCN1CCCC1)C2
21 | 661 s | CN1C(=O)c2cccn2CC1CNC(=O)NCCc1ccccc1 (stereo not drawn)
22 | 812 s | O=C(Cc1cccc(F)c1)N1CCC(n2nc(-c3ccsc3)ccc2=O)CC1

Row | RP-LC retention time | Structure (SMILES)
23 | 639 s | CCc1cc(=O)n(CC(=O)N(CC)Cc2ccccc2)c(N)n1
24 | 828 s | Cc1cc(N2CCN(c3ccccn3)CC2)n2nc(-c3cccc(Cl)c3)c(C)c2n1
25 | 851 s | COc1ccc(Cl)cc1NC(=O)CSc1ccc(NC(=O)c2ccco2)nn1
26 | 682 s | Cc1ccc(Nc2cc(N3CCC(C(=O)N4CCSCC4)CC3)ncn2)cc1
27 | 745 s | Cc1ccc2nc(C(=O)N3CCC(C)CC3)cc(Nc3ccc(N(C)C)cc3)c2c1
28 | 1250 s | CCOc1ccccc1-c1nc(CN(c2ccccc2OC)S(=O)(=O)c2ccccc2C)c(C)o1
29 | 677 s | CCCNC(=O)C1CCN(c2ccc(SCC(=O)Nc3cccc(SC)c3)nn2)CC1
30 | 566 s | CCNC(=O)c1ccc(-n2c(C)ccc2C)nc1
31 | 580 s | Cc1oc(-c2[nH]ncc2C(=O)N2CCCC2)cc1S(=O)(=O)N1CCN(CC(C)C)CC1
32 | 1040 s | CCn1nccc1C(=O)N1CCc2c(-c3ccc(OC)cc3)cccc2[C@H]1C
33 | 585 s | O=C(Cn1c(=O)n(-c2ccccc2)c2ncccc21)NCCN1CCCCC1
34 | 991 s | CCCCCC#CC[C@@H](O)/C=C/C=C/C=C\[C@@H](O)CCCC(=O)O
35 | 617 s | CC(C)OCCCNC(=O)C1CCCCC(=O)N1 (stereo not drawn)
36 | 1170 s | CCC(Sc1ncnc2c1cnn2-c1ccc(F)cc1)C(=O)OC (stereo not drawn)
37 | 610 s | Cc1noc(C)c1-c1ccc(S(=O)(=O)N2CCN(C)CC2)cc1
38 | 801 s | Cc1nnc(-c2ccc3ccn(CC(=O)N4CCN(c5ccccc5)CC4)c3c2)o1
39 | 680 s | CCOC(=O)c1cnc2nc(C)ccc2c1Nc1ccc2c(c1)OCO2
40 | 601 s | CC(C)CCn1c(CCCC(=O)Nc2ccncc2)nc2cccnc21
41 | 583 s | COc1ccc(-c2cc3nc(C)cc(N4CCN(c5ccccn5)CC4)n3n2)cc1OC
42 | 722 s | COCCC(=O)NC1CCN(C2=NS(=O)(=O)C(c3ccc(C)c(C)c3)=C2C)CC1
43 | 703 s | CC(C)c1ccc(Sc2ccc(N3CCC(C(=O)NCCCO)CC3)nn2)cc1
44 | 1020 s | CCN1C(=O)COc2ccc(-c3noc(-c4ccc(OC)c(OC)c4)n3)cc21

Row | RP-LC retention time | Structure (SMILES)
45 | 914 s | O=C1C2N=NN(c3ccc(F)cc3)C2C(=O)N1c1ccccc1 (stereo not drawn)
46 | 793 s | CCn1ncc(NC(=O)COc2ccc(F)cc2)c(N2CCCCC2)c1=O
47 | 641 s | CCn1c(=O)c(SCC(=O)NCCN(C)Cc2ccccc2)nc2ccccc21
48 | 855 s | CC(C)n1c(N2CCN(C(=O)COc3ccccc3)CC2)cc(=O)n(C(C)C)c1=O
49 | 861 s | Cc1cccc(N2CCN(C(=O)CC3COc4ccccc4NC3=O)CC2)c1C (stereo not drawn)
50 | 873 s | CC1CN(S(=O)(=O)c2cccc(-c3cn4cc(Cl)ccc4n3)c2)CC(C)O1 (stereo not drawn)
51 | 656 s | CC(C)c1nc2ccc(C(=O)NCCN(C)C3CCCCC3)cc2o1
52 | 718 s | CCOC(=O)CNC(=O)N1CCCN(C2=NS(=O)(=O)C(c3ccccc3)=C2C)CC1
53 | 685 s | COCCN1C(=O)[C@H]2CN(Cc3cccc(Cl)c3F)C[C@H]2C1=O
54 | 812 s | CSc1cccc(NC(=O)C2CCN(S(=O)(=O)c3cn(C(C)C)cn3)CC2)c1
55 | 616 s | COc1ccccc1NC(=O)Nc1c(C)nc2ccc(C)cn2c1=O
56 | 776 s | CC(C)(C)c1nnc(NC(=O)C2CCN(C(=O)c3ccc(F)cc3)CC2)s1
57 | 615 s | Cc1nc(NC(=O)C2COCC(=O)N2Cc2ccccc2)sc1C(=O)N(C)C (stereo not drawn)
58 | 879 s | Cc1cc(C)c(S(=O)(=O)N2CCC(c3cc(N)on3)CC2)cc1C
59 | 568 s | Nc1nnc(CS(=O)(=O)c2ccccc2)o1
60 | 592 s | Cn1c(=O)c(=O)n(C)c2cc(N3CCCCC3)c(NC(=O)CN3CCCCC3)cc21
61 | 897 s | O=C(Nc1ccc(F)cc1)N1CCC(CCNC(=O)C2(c3ccccc3)CC2)CC1
62 | 724 s | CCOC(=O)C1=C(C)NC(=O)NC1c1c(F)cccc1Cl (stereo not drawn)
63 | 760 s | CCc1nnc(-c2ccc3ccn(CC(=O)NCc4cc(OC)c(OC)c(OC)c4)c3c2)o1
64 | 1050 s | Cc1cc(C)nc(SCC(=O)Nc2nc(-c3ccccc3)c(-c3ccccc3)o2)n1
65 | 688 s | CCOCC(=O)N1CCCN(C2=NS(=O)(=O)C(c3ccccc3)=C2C)CC1
66 | 1270 s | Cc1cccc(-c2noc(C3CCCN3S(=O)(=O)c3ccc4c(c3)CCC4)n2)c1 (stereo not drawn)

Row | RP-LC retention time | Structure (SMILES)
67 | 578 s | Cn1cnc2cc(CNC(=O)c3ccc(C#N)cc3)ccc21
68 | 826 s | CCN(CC)C(=O)c1ccc2c(c1)N(Cc1ccc(F)cc1)C(=O)CO2
69 | 733 s | CCOc1ccccc1NC(=O)NCCc1cn(C)c2ncccc12
70 | 718 s | CCOC(=O)C(C)Sc1nnc2n1CCN2c1ccc(F)cc1 (stereo not drawn)
71 | 1110 s | O=S(=O)(c1ccccc1Br)N1CCCC1c1nc(-c2ccc(F)cc2)no1 (stereo not drawn)
72 | 791 s | CCN1C(=O)c2cccnc2Sc2cc(CNC(=O)c3cccc(F)c3)ccc21
73 | 889 s | COc1ccc(C(=O)N2CCC3(CC2)N=C(c2ccc(Br)cc2)C(=O)N3)cc1
74 | 1240 s | Cc1cc(C)n(-c2ncnc3c2cnn3Cc2ccccc2)n1
75 | 728 s | COc1ccc(CC(=O)NC2CCN(c3cc(-c4ccc(Cl)cc4)[nH]n3)C2)cc1OC (stereo not drawn)
76 | 784 s | COc1ccccc1CNS(=O)(=O)c1cc2n(c1)CCN(C(C)C)C2=O
77 | 817 s | Cc1cccc(-c2nnc(CC(=O)NC3CCCCC3)o2)c1
78 | 797 s | O=C(CCc1nc2ccccc2n(CC(=O)Nc2ccc3c(c2)OCO3)c1=O)NCc1ccccc1
79 | 959 s | CCN1C(=O)c2cc(S(=O)(=O)Nc3ccccc3)ccc2Oc2cccnc21
80 | 842 s | O=S(=O)(c1ccc(-c2cnc(C3CCCC3)o2)s1)N1CCN(c2ccccn2)CC1
81 | 718 s | COCCN1CCn2cc(S(=O)(=O)Nc3cccc(Cl)c3)cc2C1=O
82 | 677 s | CCOC(=O)N1CCC(NC(=O)CCc2cc3cc(C)ccc3[nH]c2=O)CC1
83 | 875 s | CCNC(=O)c1nnc(-c2ccc(S(=O)(=O)N3CCC(C)CC3)cc2)o1
84 | 760 s | CCOc1ccc(-c2nc3ncccn3c2NCc2ccc(Cl)cc2)cc1OC
85 | 1210 s | Cc1cccc(-c2nc(Cn3nnc(C(=O)NCc4ccc(C(F)(F)F)cc4)c3C)c(C)o2)c1
86 | 575 s | CCCn1ccc2oc(C)c(C(=O)N3CCN(CC(C)C)CC3)c2c1=O

Row | Structure (SMILES) | RP-LC retention time
87 | O=C1C[C@@H]2OCC=C3C[N+]4([O-])CC[C@]56c7ccccc7N1[C@H]5[C@H]2[C@H]3C[C@@H]64 (stereo partly drawn) | 639 s
88 | CCn1cc(S(=O)(=O)N2[C@H]3CC[C@@H]2c2cnc(-c4ccccc4)nc2C3)cn1 | 868 s
